Experiments:
[1] = molecular target: L. mexicana CPB2.8∆CTE (Leishmania mexicana, UniProt P36400); test: CPB2.8∆CTE fluorescence endpoint assay with Z-F-R-AMC substrate; type: biochemical
Protocol: (§1) The activities of CPB2.8∆CTE and BtCatB were measured in a homogeneous fluorescence endpoint assay using Z-F-R-AMC as substrate, modified from published methods. The fluorophore AMC (7-amino-4-methylcoumarin) is released by active cysteine protease, and can be detected at 360 nm excitation and 465 nm emission. The assay was optimized for automated high throughput screening on a Biomek FX workstation (Beckman Coulter). All assays were carried out in black 384 well plates at room temperature (22°C). Each plate contained 24 controls in the 23rd and 24th rows of the plate, including 8 positive controls and 8 blanks (without enzyme) as well as 8 inhibitor controls. E-64 was used as standard inhibitor. […] Test compounds available as 10 mM stock solutions in DMSO were diluted further in DMSO, except for the last 1:10 step, which was done in H2O to lower the DMSO concentration in the assay. Final concentrations of the test compounds from 30 µM to 0.3 nM were used. For the L. mexicana CPB2.8∆CTE assay, 5 µl test compound or 5 µl DMSO in acetate buffer (10% DMSO) was added to each well of the microtiter plate. Subsequently, 25 µl of a premix containing sodium acetate buffer (final concentration [f.c.] 100 mM), titriplex II (f.c. 1 mM) (Merck, Darmstadt, Germany), DTT (f.c. 10 mM) (Carl Roth GmbH, Karlsruhe, Germany), triton (f.c. 0.01%) (Merck, Darmstadt, Germany), BSA (f.c. 0.1 mg/ml) (PAA Laboratories GmbH, Pasching, Austria) and enzyme was added to each well, except the wells for the blanks, which include the premix without enzyme. After an incubation time of 10 min, the reaction was started by addition of substrate (20 µl Z-F-R-AMC; f.c. 20 µM). The reaction was stopped after 35 min incubation at room temperature by addition of 10 µl inhibitor E64 (f.c. 16.7 µM) and enzyme activity was measured with a SpectraFluorPlus (Tecan Inc., Durham, NC) plate reader using excitation at 360 nm with emission at 465 nm. The assay procedure for BtCatB was the same as for the CPB2.8∆CTE assay with the exceptions of the final concentration of the substrate Z-F-R-AMC (100 µM) and the stop of the assay using a stop buffer containing sodium acetate and sodium chlorine acetate (f.c. 41.7 mM each).
(§2) The percentage enzyme activity was calculated using the formula (V-B)/(C-B) x 100%, with V being the absorbance of the assay containing the test compound, B being the absorbance of the negative control (‘blank’) and C being the absorbance of the positive control. In primary screening, all compounds of the screening library were tested at 10 µM in double point measurements. Z´ factors, which describe the quality of an assay, were in the range of 0.85-0.99. The Z´ factor is defined in terms of four parameters: the means and standard deviations of both the positive (p) and negative (n) controls: Z´= 1-((3 x (STDEVp + STDEVn))/(MEANp - MEANn)).
(§3) The theoretical hit limit for a HTS primary screen can be calculated as MEAN + 3 x STDEV of inhibitions from diverse compounds. […] In our case, based on a preliminary screen of >3000 diverse compounds, the hit limit was determined between 12.8% and 22.9% inhibition. For practical reasons, screening hit limits are normally set above this limit, aiming at approximately 0.2-0.4% hits from a diverse library. Therefore, 50% inhibition at 10 µM compound concentration compared to the positive controls was considered a hit compound and were subjected to hit verification (IC50 determination from liquid compound stock) using CPB2.8∆CTE and BtCatB to get the activity profile of the compounds. Hit confirmation (IC50 determination from freshly dissolved solid compound stock) was performed for all compounds with an IC50 ≤ 30 µM on CPB2.8∆CTE. Compound concentrations used for IC50 determinations were as follows: 30 µM, 10 µM, 3 µM, 1 µM, 0.3 µM, 0.1 µM, 0.03 µM, 0.01 µM, 0.003 µM, 0.001 µM, and 0.0003 µM. […]

[2] = molecular target: T1, bovine cathepsin B (BtCatB) (Bos taurus, UniProt P07688); test: BtCatB counter assay, fluorescence endpoint with Z-F-R-AMC substrate; type: biochemical; conditions: mean ± SD, three independent experiments, substrate Z-F-R-AMC 100 µM
T1 construct: purchased Sigma-Aldrich Inc., St. Louis, MO, USA; host or cells: bovine spleen
Protocol: The activities of CPB2.8∆CTE and BtCatB were measured in a homogeneous fluorescence endpoint assay using Z-F-R-AMC as substrate, modified from published methods. The fluorophore AMC (7-amino-4-methylcoumarin) is released by active cysteine protease, and can be detected at 360 nm excitation and 465 nm emission. The assay was optimized for automated high throughput screening on a Biomek FX workstation (Beckman Coulter). All assays were carried out in black 384 well plates at room temperature (22°C). Each plate contained 24 controls in the 23rd and 24th rows of the plate, including 8 positive controls and 8 blanks (without enzyme) as well as 8 inhibitor controls. E-64 was used as standard inhibitor. […] Test compounds available as 10 mM stock solutions in DMSO were diluted further in DMSO, except for the last 1:10 step, which was done in H2O to lower the DMSO concentration in the assay. Final concentrations of the test compounds from 30 µM to 0.3 nM were used. For the L. mexicana CPB2.8∆CTE assay, 5 µl test compound or 5 µl DMSO in acetate buffer (10% DMSO) was added to each well of the microtiter plate. […] The reaction was stopped after 35 min incubation at room temperature by addition of 10 µl inhibitor E64 (f.c. 16.7 µM) and enzyme activity was measured with a SpectraFluorPlus (Tecan Inc., Durham, NC) plate reader using excitation at 360 nm with emission at 465 nm. […]
The percentage enzyme activity was calculated using the formula (V-B)/(C-B) x 100%, with V being the absorbance of the assay containing the test compound, B being the absorbance of the negative control (‘blank’) and C being the absorbance of the positive control. […]
The theoretical hit limit for a HTS primary screen can be calculated as MEAN + 3 x STDEV of inhibitions from diverse compounds. […]

[3] = system: L. mexicana CPB2.8∆CTE; test: CPB2.8∆CTE fluorescence endpoint assay with Z-F-R-AMC substrate; type: biochemical, Leishmania mexicana; conditions: ratio of IC50 on CPB2.8∆CTE to IC50 on BtCatB
Protocol: as §1, §2, §3

L. mexicana CPB2.8∆CTE (Leishmania mexicana, UniProt P36400), sequence (P36400 126-343): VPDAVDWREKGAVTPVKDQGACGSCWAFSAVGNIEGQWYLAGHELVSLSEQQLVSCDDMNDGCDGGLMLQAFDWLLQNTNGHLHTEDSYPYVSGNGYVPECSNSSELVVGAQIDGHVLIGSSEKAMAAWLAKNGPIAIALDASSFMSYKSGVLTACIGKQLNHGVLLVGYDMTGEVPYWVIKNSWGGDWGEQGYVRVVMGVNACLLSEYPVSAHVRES

| SMILES | IC50 [1] [nM] | Ki [1] [nM] | IC50 [2] [µM] | inhibition of protease activity ([1]; final concentration 10 µM, standard inhibitor control of the CPB2.8∆CTE and BtCatB assays) | selectivity ratio (CPB2.8∆CTE/BtCatB) [3] |
| --- | --- | --- | --- | --- | --- |
| COc1ncccc1Nc1nc(C#N)nc(NC2CCCCC2)n1 [CP241026, 4-(cyclohexylamino)-6-[(2-methoxy-3-pyridinyl)amino]-1,3,5-triazine-2-carbonitrile] | 1100 ± 150 | 570 ± 80 | 13.8 ± 4.5 |  |  |
| CC(C)C[C@H](NC(=O)[C@H]1O[C@@H]1C(=O)O)C(=O)NCCCCNC(=N)N (relative stereo) [Compound E-64, 1-[N-[(L-3-trans-carboxyoxirane-2-carbonyl)-L-leucyl]amino]-4-guanidinobutane, reference compound] |  |  |  | complete inhibition |  |
| COc1ccc(-c2ccc(/C=N/NC(N)=S)o2)cc1 [CP247129, 5-(4-methoxy-phenyl)-2-furanyl-2-carbaldehyde thiosemicarbazone] | 70 ± 40 | 40 ± 20 | > 30 |  |  |
| NC(=O)N/N=c1\oc2ccccc2cc1-c1nc2ccccc2[nH]1 [CP229988, 3-[(1H-benzimidazol-2-yl)-2H-1-benzopyran-2-ylidene]-2-carbaldehyde semicarbazone] | 10 ± 3 | 5 ± 2 | > 30 |  | < 0.00033 |
| NC(=S)NN=Cc1c(-c2ccccc2)[nH]c2ccccc12 [CP247128, 2-phenyl-1H-indole-3-carbaldehyde thiosemicarbazone] | 60 ± 10 |  |  |  |  |

Reference: paper PMC3797739, “Identification of Semicarbazones, Thiosemicarbazones and Triazine Nitriles as Inhibitors of Leishmania mexicana Cysteine Protease CPB” (PLoS ONE, 2013)
